# Experimental data taken from patent publication US20230190754A1, “Therapeutic combinations for the treatment of Progressive Fibrosing interstitial lung diseases” (Boehringer Ingelheim International GmbH, priority 2021, published 2023).
# Tested on: IPF patients
# Test: Phase II clinical trial in IPF patients: Treatment Emergent Adverse Events (safety/tolerability), up to 13 weeks
# [1] = AF-group (antifibrotic background), 18 mg b.i.d.
# Description: The participants were divided into 2 groups by chance (the “active agent group” and the “placebo group”). […] One 12 mg placebo tablet and one 6 mg placebo tablet (both containing no active ingredient, see Table 1) was administered orally to the patients of the second group twice daily (b.i.d.).
# The “active agent group” and the “placebo group” were further distributed to two different groups regarding background medication: the “AF-group” (“antifibrotic background medication group”) and the “Non-AF-group” (“no antifibrotic background medication group”). […] The combination of both nintedanib and pirfenidone as background medication was not allowed in the “AF-group”.
# The trial was a randomised, double-blind, placebo-controlled parallel group study.
smiles,measurement,setting,value
[O-][S@+]1CCc2nc(N3CCC(c4ncc(Cl)cn4)CC3)nc(NC3(CO)CCC3)c21 [Comp. of form. III],"Arthralgia, %","AF Ninted., N = 26",(7.7) %
same,"Bronchitis, %","AF Ninted., N = 26",(3.8) %
same,"Condition aggravated, %","AF Ninted., N = 26",(3.8) %
same,"Cough, %","AF Ninted., N = 26",(7.7) %
same,"Decreased appetite, %","AF Ninted., N = 26",(7.7) %
same,"Diarrhoea, %","AF Ninted., N = 26",(46.2) %
same,"Dyspepsia, %","AF Ninted., N = 26",(3.8) %
same,"Fatigue, %","AF Ninted., N = 26",(3.8) %
same,"Flatulence, %","AF Ninted., N = 26",(3.8) %
same,"Gastrointestinal disorders, %","AF Ninted., N = 26",(46.2) %
same,"General Disorders and Administration Side conditions, %","AF Ninted., N = 26",(19.2) %
same,"Headache, %","AF Ninted., N = 26",(7.7) %
same,"Infections and infestations, %","AF Ninted., N = 26",(23.1) %
same,"Investigations, %","AF Ninted., N = 26",(26.9) %
same,"Metabolism and nutrition disorders, %","AF Ninted., N = 26",(11.5) %
same,"Musculoskeletal and connective tissue disorders, %","AF Ninted., N = 26",(7.7) %
same,"Nasopharyngitis, %","AF Ninted., N = 26",(15.4) %
same,"Nervous system disorders, %","AF Ninted., N = 26",(15.4) %
same,"Oedema peripheral, %","AF Ninted., N = 26",(3.8) %
same,"Pyrexia, %","AF Ninted., N = 26",(2.1) %
same,"Respiratory, thoracic and mediastinal disorders, %","AF Ninted., N = 26",(11.5) %
same,"Vomiting, %","AF Ninted., N = 26",(3.8) %
same,"Abdominal Pain, %","AF Pirf., N = 15",(4.3) %
same,"Asthenia, %","AF Pirf., N = 15",(4.3) %
same,"Condition aggravated, %","AF Pirf., N = 15",(4.3) %
same,"Constipation, %","AF Pirf., N = 15",(4.3) %
same,"Cough, %","AF Pirf., N = 15",(8.7) %
same,"Diarrhoea, %","AF Pirf., N = 15",(13.0) %
same,"Dizziness, %","AF Pirf., N = 15",(4.3) %
same,"Dyspepsia, %","AF Pirf., N = 15",(4.3) %
same,"Fatigue, %","AF Pirf., N = 15",(4.3) %
same,"Flatulence, %","AF Pirf., N = 15",(4.3) %
same,"Gastrointestinal disorders, %","AF Pirf., N = 15",(26.1) %
same,"General Disorders and Administration Side conditions, %","AF Pirf., N = 15",(8.7) %
same,"Headache, %","AF Pirf., N = 15",(4.3) %
same,"Infections and infestations, %","AF Pirf., N = 15",(4.3) %
same,"Investigations, %","AF Pirf., N = 15",(13.0) %
same,"Musculoskeletal and connective tissue disorders, %","AF Pirf., N = 15",(4.3) %
same,"Nausea, %","AF Pirf., N = 15",(4.3) %
same,"Nervous system disorders, %","AF Pirf., N = 15",(21.7) %
same,"Respiratory, thoracic and mediastinal disorders, %","AF Pirf., N = 15",(13.0) %
same,"Rhinorrhoea, %","AF Pirf., N = 15",(4.3) %
same,"Vomiting, %","AF Pirf., N = 15",(4.3) %
same,"AE resulting in death, patients %",[1],(2.0) %
same,"AE resulting in death, patients n",[1],1
same,"AE: Abdominal pain, patients %",[1],(2.0) %
same,"AE: Abdominal pain, patients n",[1],1
same,"AE: Arthralgia, patients %",[1],(4.1) %
same,"AE: Arthralgia, patients n",[1],2
same,"AE: Asthenia, patients %",[1],(2.0) %
same,"AE: Asthenia, patients n",[1],1
same,"AE: Bronchitis, patients %",[1],(2.0) %
same,"AE: Bronchitis, patients n",[1],1
same,"AE: Condition aggravated, patients %",[1],(4.1) %
same,"AE: Condition aggravated, patients n",[1],2
same,"AE: Constipation, patients %",[1],(2.0) %
same,"AE: Constipation, patients n",[1],1
same,"AE: Cough, patients %",[1],(8.2) %
same,"AE: Cough, patients n",[1],4
same,"AE: Decreased appetite, patients %",[1],(4.1) %
same,"AE: Decreased appetite, patients n",[1],2
same,"AE: Diarrhoea, patients %",[1],30.6%
same,"AE: Diarrhoea, patients n",[1],15
same,"AE: Dizziness, patients %",[1],(2.0) %
same,"AE: Dizziness, patients n",[1],1
same,"AE: Dyspepsia, patients %",[1],(4.1) %
same,"AE: Dyspepsia, patients n",[1],2
same,"AE: Fatigue, patients %",[1],(2.0) %
same,"AE: Fatigue, patients n",[1],1
same,"AE: Flatulence, patients %",[1],(4.1) %
same,"AE: Flatulence, patients n",[1],2
same,"AE: Gastrointestinal disorders, patients %",[1],36.7%
same,"AE: Gastrointestinal disorders, patients n",[1],18
same,"AE: General disorders and administration site conditions, patients %",[1],(14.3) %
same,"AE: General disorders and administration site conditions, patients n",[1],7
same,"AE: Headache, patients %",[1],(6.1) %
same,"AE: Headache, patients n",[1],3
same,"AE: Infections and infestations, patients %",[1],(14.3) %
same,"AE: Infections and infestations, patients n",[1],7
same,"AE: Investigations, patients %",[1],(20.4) %
same,"AE: Investigations, patients n",[1],10
same,"AE: Metabolism and nutrition disorders, patients %",[1],(6.1) %
same,"AE: Metabolism and nutrition disorders, patients n",[1],3
same,"AE: Musculoskeletal and connective tissue disorders, patients %",[1],(6.1) %
same,"AE: Musculoskeletal and connective tissue disorders, patients n",[1],3
same,"AE: Nasopharyngitis, patients %",[1],(8.2) %
same,"AE: Nasopharyngitis, patients n",[1],4
same,"AE: Nausea, patients %",[1],(2.0) %
same,"AE: Nausea, patients n",[1],1
same,"AE: Nervous system disorders, patients %",[1],(18.4) %
same,"AE: Nervous system disorders, patients n",[1],9
same,"AE: Oedema peripheral, patients %",[1],(2.0) %
same,"AE: Oedema peripheral, patients n",[1],1
same,"AE: Pyrexia, patients %",[1],(2.0) %
same,"AE: Pyrexia, patients n",[1],1
same,"AE: Respiratory, thoracic and mediastinal disorders, patients %",[1],(12.2) %
same,"AE: Respiratory, thoracic and mediastinal disorders, patients n",[1],6
same,"AE: Rhinorrhoea, patients %",[1],(2.0) %
same,"AE: Rhinorrhoea, patients n",[1],1
same,"AE: Vomiting, patients %",[1],(4.1) %
same,"AE: Vomiting, patients n",[1],2
same,"AE: Weight decreased, patients %",[1],(2.0) %
same,"AE: Weight decreased, patients n",[1],1
same,"AEs leading to discontinuation of trial drug, patients %",[1],(20.4) %
same,"AEs leading to discontinuation of trial drug, patients n",[1],10
same,"Any AE, patients n",[1],36
same,"SAE: Condition aggravated, patients %",[1],(4.1) %
